Measurements published in patent publication US7294640B2, “Mitotic kinesin inhibitors” (Merck & Co., Inc., priority 2004, dated 2007).

These compounds were tested against T1, GST-MCAK fusion protein (Homo sapiens, UniProt Q99661) (assay: MCAK ATPase in vitro assay). Conditions: GST-MCAK 100 nM, 1 mM sodium ATP, 2 μM microtubules, RT 50 min, 5% DMSO.
T1 construct: The GST-MCAK fusion protein was purchased Cytoskeleton (cat. #MK01); fused on or other part: GST tag (N-terminal, by the vendor's product)
T1 sequence (Q99661 258-588 limits assumed): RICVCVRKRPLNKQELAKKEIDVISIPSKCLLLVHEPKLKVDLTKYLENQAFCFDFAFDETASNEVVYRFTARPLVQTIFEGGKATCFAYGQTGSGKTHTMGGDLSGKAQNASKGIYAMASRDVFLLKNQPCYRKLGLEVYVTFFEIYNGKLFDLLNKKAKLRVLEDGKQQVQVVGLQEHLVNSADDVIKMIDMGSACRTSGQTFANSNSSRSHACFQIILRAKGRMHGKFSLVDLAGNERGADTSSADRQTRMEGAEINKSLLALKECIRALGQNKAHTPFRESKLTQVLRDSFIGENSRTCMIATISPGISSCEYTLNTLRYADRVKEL
Type: biochemical
Protocol: V. MCAK ATPase in Vitro Assay
Reagents: The GST-MCAK fusion protein was purchased Cytoskeleton (cat. #MK01). Tubulin from bovine brain was purchased from Cytoskeleton (HTS-grade), BSA from Sigma (cat. # 3059). chloramphenicol from Boehringer Mannheim (cat. # 634433), ampicillin from Fisher Biotech (cat. # BP1760-25) and Paclitaxel from Cytoskeleton (cat. # TXD01)
Microtubule preparation: For the preparation of microtubules, purified tubulin (>97% MAP-free) at 1 mg/ml was polymerized at 37° C. in the presence of 10 μM paclitaxel, 1 mM DTT, 1 mM GTP in BRB80 buffer (80 mM K-PIPES, 1 mM EGTA, 1 mM MgCl2 at pH 6.8). The resulting microtubules were separated from non-polymerized tubulin by ultracentrifugation and removal of the supernatant. The pellet, containing the microtubules, was gently resuspended in 1×BRB 80 containing 10 μM paclitaxel, 1 mM DTT, 50 μg/ml ampicillin, 5 μg/ml chloramphenicol in BRB80.
MCAK ATPase assay: GST-MCAK at 100 nM was incubated with 1 mM sodium ATP, 2 μM microtubules with 2 μM paclitaxel (concentration refers to tubulin dimers), and inhibitor at RT for 50 min in reaction buffer (80 mM K-PIPES, 1 mM K-EGTA, 2 mM MgCl2, 1 mM DTT, and 100 μg/ml BSA, pH 6.9). Compounds were dissolved in DMSO, and the final DMSO concentration in the reaction was 5%. The reaction was terminated with a 2-fold dilution of the reaction with 2× stop buffer (50 mM EDTA/1.8 M KCl). The free phosphate from the ATP hydrolysis reaction was measured via a quinaldine red/ammonium molybdate assay by adding 1.5 volumes of quench C within 24 hrs of addition of stop buffer. (Cogan, E. B., Birrell, G. B., Griffith, O. H. (1999) Analytical Biochemistry 271, p 29). Quench C was prepared by adding 1 volume of quench B (12.3 mM ammonium molybdate tetrahydrate in 1.15 M sulfuric acid) to 2 volumes of quench A (0.1 mg/ml quinaldine red, 0.14% polyvinyl alcohol). The plate was incubated for 5 min at room temperature, and the absorbance of the phosphomolybdate complex was measured at 540 nm.

IC50, ≤ 50 µM:
Cc1cccc(C2(c3nc(-c4ccncc4)cs3)CC2)c1 [Compound 9-14, 4-{2-[1-(3-methylphenyl)cyclopropyl]-1,3-thiazol-4-yl}pyridine]
Oc1cnccc1-c1csc(C2(c3ccccc3)CC2)n1 [Compound 3-3, 4-[2-(1-phenylcyclopropyl)-1,3-thiazol-4-yl]pyridin-3-ol]
Oc1ccc(-c2csc(C3(c4ccccc4)CC3)n2)cc1O [Compound 3-2, 4-(3,4-dihydroxyphenyl)-2-(1-phenylcyclopropyl)-1,3-thiazole]
N#Cc1ccc(-c2csc(C3(c4c(F)cccc4F)CC3)n2)cc1 [Compound 1-15, 4-{2-[1-(2,6-difluorophenyl)cyclopropyl]-1,3-thiazol-4-yl}benzonitrile]
Fc1ccccc1C1(c2nc(-c3ccncc3)cs2)CC1 [Compound 9-11, 4-{2-[1-(2-fluorophenyl)cyclopropyl]-1,3-thiazol-4-yl}pyridine]
OCc1cccc(-c2csc(C3(c4ccccc4)CC3)n2)c1 [Compound 5-1, {3-[2-(1-phenylcyclopropyl)-1,3-thiazol-4-yl]phenyl}methanol]
Oc1cccc(-c2csc(C3(c4ccccc4)CC3)n2)c1 [Compound 3-5, 3-[2-(1-phenylcyclopropyl)-1,3-thiazol-4-yl]phenol]
[O-][n+]1ccc(-c2csc(C3(c4ccccc4)CC3)n2)cc1 [Compound 2-3, 4-[2-(1-phenylcyclopropyl)-1,3-thiazol-4-yl]-1lambda~5~pyridin-1-ol]
Oc1ccc(-c2csc(C3(c4ccccc4)CC3)n2)cc1 [Compound 3-4, 4-[2-(1-phenylcyclopropyl)-1,3-thiazol-4-yl]phenol]
c1ccc(C2(c3nc(-c4cccnc4)cs3)CC2)cc1 [Compound 1-10, 3-[2-(1-phenylcyclopropyl)-1,3-thiazol-4-yl]pyridine]
Clc1cccc(C2(c3nc(-c4ccncc4)cs3)CC2)c1 [Compound 9-10, 4-{2-[1-(3-chlorophenyl)cyclopropyl]-1,3-thiazol-4-yl}pyridine]
CC(c1ccccc1)c1nc(-c2ccc([N+](=O)[O-])cc2)cs1 (centres unmarked) [Compound 1-5, 4-(4-nitrophenyl)-2-(1-phenylethyl)-1,3-thiazole]
N#Cc1ccc(-c2csc(C3(c4ccccc4)CC3)n2)cn1 [Compound 2-2, 5-[2-(1-phenylcyclopropyl)-1,3-thiazol-4-yl]pyridine-2-carbonitrile]
Clc1cc(-c2csc(C3(c4ccccc4)CC3)n2)ccn1 [Compound 9-13, 2-chloro-4-[2-(1-phenylcyclopropyl)-1,3-thiazol-4-yl]pyridine]
